{
  "source": "patent US8394770B2",
  "about": "(priority 2007, dated 2013)",
  "key": {"hKv1.3 channels": {"biological_target": "hKv1.3 channels (Homo sapiens, UniProt P22001)", "sequence (P22001 whole entry)": "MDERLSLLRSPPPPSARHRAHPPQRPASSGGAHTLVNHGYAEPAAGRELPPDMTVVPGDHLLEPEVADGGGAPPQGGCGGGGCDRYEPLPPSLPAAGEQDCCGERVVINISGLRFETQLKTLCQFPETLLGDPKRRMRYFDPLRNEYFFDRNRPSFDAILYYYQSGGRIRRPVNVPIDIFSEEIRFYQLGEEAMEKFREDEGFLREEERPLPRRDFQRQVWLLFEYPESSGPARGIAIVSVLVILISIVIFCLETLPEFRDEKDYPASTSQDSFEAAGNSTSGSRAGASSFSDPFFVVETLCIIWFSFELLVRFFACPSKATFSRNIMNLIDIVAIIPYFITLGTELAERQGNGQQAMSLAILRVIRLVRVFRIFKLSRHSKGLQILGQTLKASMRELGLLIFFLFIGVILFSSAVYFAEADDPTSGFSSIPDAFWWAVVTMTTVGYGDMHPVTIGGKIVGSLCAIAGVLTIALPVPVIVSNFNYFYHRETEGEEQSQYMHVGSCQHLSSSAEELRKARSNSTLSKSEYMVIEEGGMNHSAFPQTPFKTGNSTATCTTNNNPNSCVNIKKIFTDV", "assay": "Whole-cell patch-clamp block of hKv1.3 channels endogenously expressed in human peripheral blood T cells", "type": "cell-based", "design": "channels expressed endogenously in human peripheral blood T cells; endogenous in cells; host or cells: human peripheral blood T lymphocytes from healthy volunteers, PHA-stimulated"}, "hKv1.4": {"biological_target": "hKv1.4 (Homo sapiens, UniProt P22459)", "sequence (P22459 148-653)": "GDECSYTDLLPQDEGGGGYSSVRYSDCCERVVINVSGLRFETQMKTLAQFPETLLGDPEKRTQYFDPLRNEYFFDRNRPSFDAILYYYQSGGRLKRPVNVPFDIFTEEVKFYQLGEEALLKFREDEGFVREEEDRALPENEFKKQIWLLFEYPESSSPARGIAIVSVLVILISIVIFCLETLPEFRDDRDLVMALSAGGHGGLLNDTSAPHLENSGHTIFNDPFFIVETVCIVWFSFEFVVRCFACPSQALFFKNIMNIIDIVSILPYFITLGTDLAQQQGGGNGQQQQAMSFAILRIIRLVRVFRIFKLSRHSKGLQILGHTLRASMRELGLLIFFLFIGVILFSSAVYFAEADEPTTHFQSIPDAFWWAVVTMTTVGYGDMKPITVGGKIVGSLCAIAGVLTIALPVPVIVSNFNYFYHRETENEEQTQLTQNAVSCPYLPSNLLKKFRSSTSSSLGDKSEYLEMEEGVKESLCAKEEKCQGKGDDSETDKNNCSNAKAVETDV", "assay": "Patch-clamp block of fast inactivation-removed hKv1.4 (Kv1.4ΔN) channels in Cos-7 cells", "details": "10 nM"}, "rKv2.1": {"biological_target": "T1, rKv2.1 (Rattus norvegicus, UniProt P15387)", "T1 sequence (P15387 1-857)": "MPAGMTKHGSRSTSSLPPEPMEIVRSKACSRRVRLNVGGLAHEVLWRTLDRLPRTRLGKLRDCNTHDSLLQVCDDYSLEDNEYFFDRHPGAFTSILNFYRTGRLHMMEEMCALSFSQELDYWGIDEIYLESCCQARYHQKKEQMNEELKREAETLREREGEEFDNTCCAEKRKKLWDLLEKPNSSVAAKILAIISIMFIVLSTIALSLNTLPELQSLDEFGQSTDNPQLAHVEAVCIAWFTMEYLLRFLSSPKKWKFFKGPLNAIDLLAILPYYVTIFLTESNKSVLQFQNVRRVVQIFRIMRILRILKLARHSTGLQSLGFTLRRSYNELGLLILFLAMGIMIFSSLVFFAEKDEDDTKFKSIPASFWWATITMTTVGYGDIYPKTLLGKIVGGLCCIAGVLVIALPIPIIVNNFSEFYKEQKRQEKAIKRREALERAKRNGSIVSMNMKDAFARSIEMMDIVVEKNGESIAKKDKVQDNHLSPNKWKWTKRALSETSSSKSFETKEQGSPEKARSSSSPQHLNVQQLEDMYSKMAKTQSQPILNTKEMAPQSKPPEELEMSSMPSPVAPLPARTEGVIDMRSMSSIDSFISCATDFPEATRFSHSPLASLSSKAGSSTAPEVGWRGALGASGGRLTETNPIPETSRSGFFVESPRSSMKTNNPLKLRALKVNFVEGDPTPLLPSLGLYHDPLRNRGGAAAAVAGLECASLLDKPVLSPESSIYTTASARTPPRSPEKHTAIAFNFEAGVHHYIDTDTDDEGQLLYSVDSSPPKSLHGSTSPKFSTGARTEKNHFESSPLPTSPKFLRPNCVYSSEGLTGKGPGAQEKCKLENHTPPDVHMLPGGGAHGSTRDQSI", "assay": "Patch-clamp block of rKv2.1 channels expressed in Cos-7 cells", "details": "10 nM"}, "hBK (KCa1.1)": {"biological_target": "hBK (KCa1.1) (Homo sapiens, UniProt Q12791)", "sequence (Q12791 1-1178 isoform Q12791-5)": "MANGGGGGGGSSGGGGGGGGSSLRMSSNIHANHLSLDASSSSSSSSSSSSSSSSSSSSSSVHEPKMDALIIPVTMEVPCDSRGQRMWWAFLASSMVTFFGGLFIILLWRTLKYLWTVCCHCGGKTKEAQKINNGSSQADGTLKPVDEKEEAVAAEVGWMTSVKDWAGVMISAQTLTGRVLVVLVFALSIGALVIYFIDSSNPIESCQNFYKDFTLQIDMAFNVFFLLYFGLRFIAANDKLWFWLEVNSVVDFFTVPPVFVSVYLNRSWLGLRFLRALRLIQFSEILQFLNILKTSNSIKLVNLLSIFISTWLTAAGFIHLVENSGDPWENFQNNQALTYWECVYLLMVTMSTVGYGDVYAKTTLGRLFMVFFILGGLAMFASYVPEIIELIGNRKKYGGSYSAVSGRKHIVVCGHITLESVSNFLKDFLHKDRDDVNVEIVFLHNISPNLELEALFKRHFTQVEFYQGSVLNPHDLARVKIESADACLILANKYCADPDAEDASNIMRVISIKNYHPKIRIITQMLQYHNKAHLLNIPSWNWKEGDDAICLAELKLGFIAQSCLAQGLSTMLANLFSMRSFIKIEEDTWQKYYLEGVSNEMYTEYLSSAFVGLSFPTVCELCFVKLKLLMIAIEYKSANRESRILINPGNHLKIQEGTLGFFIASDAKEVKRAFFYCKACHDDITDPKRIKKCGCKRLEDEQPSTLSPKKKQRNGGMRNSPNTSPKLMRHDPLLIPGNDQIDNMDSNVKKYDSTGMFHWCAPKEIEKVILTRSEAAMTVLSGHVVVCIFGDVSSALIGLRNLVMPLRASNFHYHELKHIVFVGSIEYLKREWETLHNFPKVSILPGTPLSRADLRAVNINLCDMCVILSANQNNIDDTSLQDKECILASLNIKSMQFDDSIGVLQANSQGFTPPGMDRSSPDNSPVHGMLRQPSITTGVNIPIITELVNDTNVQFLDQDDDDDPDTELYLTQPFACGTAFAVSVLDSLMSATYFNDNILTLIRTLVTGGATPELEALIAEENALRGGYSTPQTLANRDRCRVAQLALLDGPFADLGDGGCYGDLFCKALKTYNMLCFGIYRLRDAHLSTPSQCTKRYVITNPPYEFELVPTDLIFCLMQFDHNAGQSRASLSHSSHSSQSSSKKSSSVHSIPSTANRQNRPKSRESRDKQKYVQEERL", "assay": "Patch-clamp block of hBK (KCa1.1) channels expressed in tsA-201 cells", "details": "10 nM"}, "hKv1.2": {"biological_target": "hKv1.2 (Homo sapiens, UniProt P16389)", "sequence (P16389 whole entry)": "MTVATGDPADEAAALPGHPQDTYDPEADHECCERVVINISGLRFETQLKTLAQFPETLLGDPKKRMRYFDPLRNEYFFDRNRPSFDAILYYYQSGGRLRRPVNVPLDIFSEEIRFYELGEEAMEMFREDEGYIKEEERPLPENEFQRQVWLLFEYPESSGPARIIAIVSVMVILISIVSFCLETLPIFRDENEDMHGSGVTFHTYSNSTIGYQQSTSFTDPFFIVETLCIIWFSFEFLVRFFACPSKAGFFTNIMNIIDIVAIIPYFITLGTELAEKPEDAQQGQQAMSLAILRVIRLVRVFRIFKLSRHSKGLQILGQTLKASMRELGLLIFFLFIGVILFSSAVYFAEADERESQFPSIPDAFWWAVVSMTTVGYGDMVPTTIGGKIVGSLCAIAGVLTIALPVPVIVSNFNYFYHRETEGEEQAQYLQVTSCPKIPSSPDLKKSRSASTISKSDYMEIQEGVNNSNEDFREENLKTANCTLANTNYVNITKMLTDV", "assay": "Patch-clamp block of hKv1.2 channels expressed in Cos-7 cells", "details": "for remaining current fraction (RCF) hKv1.2: n=3"}, "hERG channel": {"biological_target": "hERG channel (Homo sapiens, UniProt Q12809)", "assay": "Patch-clamp block of hERG channels stably expressed in HEK-293 cells", "details": "10 nM"}, "mice": {"tested_on": "mice", "assay": "In vivo toxicity / lethality test by injection into mice", "details": "injected"}, "hKv1.5": {"biological_target": "hKv1.5 (Homo sapiens, UniProt P22460)", "sequence (P22460 whole entry)": "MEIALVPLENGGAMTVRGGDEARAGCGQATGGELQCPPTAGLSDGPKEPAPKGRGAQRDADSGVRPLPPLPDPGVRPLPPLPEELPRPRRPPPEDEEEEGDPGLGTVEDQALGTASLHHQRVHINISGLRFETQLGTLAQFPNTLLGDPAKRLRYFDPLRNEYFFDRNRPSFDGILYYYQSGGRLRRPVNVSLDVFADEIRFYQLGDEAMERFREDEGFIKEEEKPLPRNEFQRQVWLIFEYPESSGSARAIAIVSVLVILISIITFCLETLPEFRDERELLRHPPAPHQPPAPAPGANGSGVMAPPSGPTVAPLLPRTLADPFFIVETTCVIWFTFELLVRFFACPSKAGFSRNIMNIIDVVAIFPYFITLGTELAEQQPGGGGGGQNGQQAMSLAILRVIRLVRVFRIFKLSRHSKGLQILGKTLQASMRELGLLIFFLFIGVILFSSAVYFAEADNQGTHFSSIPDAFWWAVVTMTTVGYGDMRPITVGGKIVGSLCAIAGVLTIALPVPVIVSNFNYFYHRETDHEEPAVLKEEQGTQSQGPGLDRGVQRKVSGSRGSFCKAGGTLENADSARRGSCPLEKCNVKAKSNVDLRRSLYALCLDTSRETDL", "assay": "Patch-clamp block of hKv1.5 channels stably expressed in MEL cells", "details": "10 nM"}, "rats": {"tested_on": "rats", "assay": "Delayed-type hypersensitivity (DTH) response in DNFB-sensitized rats, ear thickness", "type": "in vivo, rat", "details": "single dose of 10 micrograms, 24 hours", "source_text": "In order to perform this kind of experiment we set up a protocol to study DTH response in rats. The system used is basically that described by Phanuphak et al., 1974. In brief, two groups of rats (3 or 5 animals each) were sensitized by applications of 40 microliters of 0.7% DNFB in 4:1 proportion of acetone: olive oil solution, in two consecutive days (days one and two), after gentle shaving of the dorsal-back region of the animals. After 7 days of the second application of the sensitizing solution, the animals were challenged by a single application of 20 microliter of 0.4% DNFB dissolved in the acetone: olive oil solution described above. This solution was spread over the dorsal surface of the right-side ears and allowed to dry, whereas the left-side ears were spread with only the vehicle solution (acetone:olive oil). On day eight of the protocol, a subcutaneous injection of 100 microliter of phosphate saline buffer pH 7.8 (PBS) was applied to each one of the animals used as control, whereas to the experimental group of rats, an amount of 10 micrograms pure Vm24 in 100 microliters PBS was subcutaneously applied. The thickness of both ears of all animals was measured 24 hours after of the application of Vm24."}, "hIKCa1": {"biological_target": "hIKCa1 (Homo sapiens, UniProt O15554)", "sequence (O15554 whole entry)": "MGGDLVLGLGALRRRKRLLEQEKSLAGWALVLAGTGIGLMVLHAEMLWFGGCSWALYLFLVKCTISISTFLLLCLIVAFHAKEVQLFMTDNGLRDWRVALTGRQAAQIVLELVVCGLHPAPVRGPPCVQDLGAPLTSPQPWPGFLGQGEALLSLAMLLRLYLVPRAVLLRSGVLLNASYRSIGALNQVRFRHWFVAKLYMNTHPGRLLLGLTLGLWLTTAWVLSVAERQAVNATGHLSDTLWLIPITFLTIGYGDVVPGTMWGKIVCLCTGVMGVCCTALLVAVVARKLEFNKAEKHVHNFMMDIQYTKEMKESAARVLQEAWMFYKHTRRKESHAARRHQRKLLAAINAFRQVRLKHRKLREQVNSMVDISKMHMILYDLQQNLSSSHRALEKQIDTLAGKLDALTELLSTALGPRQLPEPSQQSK", "assay": "Patch-clamp block of recombinant hIKCa1 channels expressed in Cos-7 cells (voltage ramps)"}, "mKv1.1": {"biological_target": "mKv1.1 (Mus musculus, UniProt P16388)", "sequence (P16388 whole entry)": "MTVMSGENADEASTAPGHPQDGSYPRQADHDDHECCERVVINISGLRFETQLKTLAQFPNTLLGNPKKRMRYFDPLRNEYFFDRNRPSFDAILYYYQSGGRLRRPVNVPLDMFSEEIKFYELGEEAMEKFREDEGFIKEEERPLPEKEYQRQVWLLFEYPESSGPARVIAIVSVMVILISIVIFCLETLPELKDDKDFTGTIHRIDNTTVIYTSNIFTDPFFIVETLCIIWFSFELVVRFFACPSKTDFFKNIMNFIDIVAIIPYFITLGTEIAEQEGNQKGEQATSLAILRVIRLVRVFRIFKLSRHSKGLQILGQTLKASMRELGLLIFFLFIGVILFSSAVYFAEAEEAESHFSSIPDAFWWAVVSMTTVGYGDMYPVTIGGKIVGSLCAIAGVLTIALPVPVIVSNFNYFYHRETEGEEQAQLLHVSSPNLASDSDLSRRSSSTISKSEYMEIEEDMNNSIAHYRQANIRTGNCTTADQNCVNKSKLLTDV", "assay": "Patch-clamp block of mKv1.1 channels stably expressed in L929 cells", "details": "for remaining current fraction (RCF) mKv1.1: n=3"}, "hNaV1.5": {"biological_target": "hNaV1.5 (Homo sapiens, UniProt Q14524)", "assay": "Patch-clamp block of cardiac voltage-gated Na+ channel NaV1.5 expressed in Cos-7 cells", "details": "10 nM"}},
  "note": "Several values for one entry are separate records, joined by “and”; a condition that tells them apart may be missing. Identical values can stand only once. Entries after “also recorded” stand apart in the source; their conditions may differ.",
  "data": [
    {"smiles": "CC[C@H](C)[C@H](NC(=O)[C@H](C)NC(=O)[C@H](C)NC(=O)[C@H](C)N)C(=O)N[C@@H](CO)C(=O)N[C@H]1CSSC[C@@H]2NC(=O)[C@H](CCCCN)NC(=O)CNC(=O)[C@H](CC(N)=O)NC(=O)[C@H](CCCCN)NC(=O)[C@@H]3CSSC[C@@H](C(N)=O)NC(=O)[C@H](Cc4ccc(O)cc4)NC(=O)[C@H](Cc4ccc(O)cc4)NC(=O)[C@@H]4CSSC[C@H](NC(=O)[C@H](CCCCN)NC(=O)[C@@H]5CCCN5C(=O)[C@@H]5CCCN5C(=O)[C@H](CSSC[C@H](NC(=O)[C@H](CCCCN)NC(=O)[C@H](CCCNC(=N)N)NC(=O)[C@H](CC(N)=O)NC(=O)[C@H](CCSC)NC2=O)C(=O)N[C@@H](CCCCN)C(=O)N4)NC(=O)[C@H](CCC(=O)O)NC(=O)[C@@H]2CCCN2C(=O)[C@H](CO)NC(=O)CNC(=O)[C@H](C(C)C)NC1=O)C(=O)N[C@@H](CCCNC(=N)N)C(=O)N[C@@H](C)C(=O)N[C@@H](CCC(N)=O)C(=O)NCC(=O)N3", "note": "[Vm24]", "values": [
      {"measurement": "block of hKv1.3 current", "setting": "hKv1.3 channels; 3 pM", "value": "over 50%"},
      {"measurement": "level at which loss of current saturates, % of the peak recorded in control solution", "setting": "hKv1.3 channels; 3 pM, 10.5-minute application", "value": "~36", "unit": "%"},
      {"measurement": "block of hKv1.3 current (words)", "setting": "hKv1.3 channels; 0.3 nM", "value": "full block"},
      {"measurement": "block of hKv1.3 current (words)", "setting": "hKv1.3 channels; 1 nM", "value": "completely disappeared; also recorded: full block; also recorded: blocks hKv1.3 channels completely; also recorded: almost completely blocked"},
      {"measurement": "blockage of hKv1.3 current", "setting": "hKv1.3 channels; 10 nM", "value": 100, "unit": "%"},
      {"measurement": "time for equilibrium block of hKv1.3 to develop", "setting": "hKv1.3 channels; 10 nM", "value": 3.5, "unit": "min"},
      {"measurement": "remaining current fraction (RCF) hKv1.3", "setting": "hKv1.3 channels; 10 nM, mean±SEM, n=3", "value": "0.01±0.01"},
      {"measurement": "fraction of blocked hKv1.3 current recovered", "setting": "hKv1.3 channels; 30 minute washout after 3 pM", "value": "one third"},
      {"measurement": "Hill coefficient n", "setting": "hKv1.3 channels; dose-response fit, hKv1.3", "value": "~1"},
      {"measurement": "Kd", "setting": "hKv1.3 channels; fit of dose-response of remaining current fraction, human T cells, stated to be an overestimate of the real Kd, read-out: Kd (dissociation constant) for hKv1.3", "value": "0.0029 nM and < 0.003 nM"},
      {"measurement": "off rate", "setting": "hKv1.3 channels; from wash-out time constant after 3 pM", "value": "~0.00026", "unit": "s⁻¹"},
      {"measurement": "effect on hKv1.4 current", "setting": "hKv1.4", "value": "practically insensitive; also recorded: does not modify"},
      {"measurement": "effect on rKv2.1 current", "setting": "rKv2.1", "value": "lack of blockade; also recorded: does not modify"},
      {"measurement": "effect on hBK current", "setting": "hBK (KCa1.1)", "value": "lack of blockade; also recorded: does not modify"},
      {"measurement": "Kd", "setting": "hKv1.2", "value": "5 to 10", "unit": "nM"},
      {"measurement": "selectivity for hKv1.3 over hKv1.2", "setting": "hKv1.2", "value": "≥ 1500", "unit": "fold"},
      {"measurement": "remaining current fraction (RCF) hKv1.2", "setting": "hKv1.2; 1 nM", "value": "0.81±0.015"},
      {"measurement": "time for equilibrium block of hKv1.2 to develop", "setting": "hKv1.2; 10 nM", "value": 5.5, "unit": "min"},
      {"measurement": "remaining current fraction (RCF) hKv1.2", "setting": "hKv1.2; 10 nM", "value": "0.54±0.08"},
      {"measurement": "reversibility of hKv1.2 block", "setting": "hKv1.2; after 10 nM, wash-out", "value": "not fully reversible"},
      {"measurement": "effect on hERG current", "setting": "hERG channel", "value": "lack of blockade; also recorded: does not modify"},
      {"measurement": "toxicity / symptoms of intoxication in mice", "setting": "mice; up to 200 microgram per mouse of 20 grams (10,000 microgram/kilogram)", "value": "not toxic; also recorded: no observable symptoms of intoxication"},
      {"measurement": "toxicity in experimental animals", "setting": "mice; up to 10,000 microgram per 20 gram mouse weight (so in the source)", "value": "not toxic"},
      {"measurement": "effect on hKv1.5 current", "setting": "hKv1.5", "value": "practically insensitive; also recorded: does not modify"},
      {"measurement": "inflammation of the ear (thickness, unchallenged ear subtracted)", "setting": "rats", "value": "no more than 0.10 mm"},
      {"measurement": "Kd", "setting": "hIKCa1", "value": "~14", "unit": "nM"},
      {"measurement": "selectivity for hKv1.3 over hIKCa1", "setting": "hIKCa1", "value": "≥ 4500", "unit": "fold"},
      {"measurement": "block of hIKCa1", "setting": "hIKCa1; 1 nM", "value": "practically does not blocks"},
      {"measurement": "time to reach equilibrium block of hIKCa1", "setting": "hIKCa1; 10 nM", "value": 4.5, "unit": "min"},
      {"measurement": "inhibition at 0.01 µM", "setting": "hIKCa1; COS-7, read-out: current inhibition hIKCa1, 10 nM", "value": "~40", "unit": "%"},
      {"measurement": "remaining activity at 0.01 µM", "setting": "hIKCa1; COS-7, read-out: slope s of current-voltage relationship, % of control", "value": "~52", "unit": "%"},
      {"measurement": "reversal of hIKCa1 block on wash-out", "setting": "hIKCa1; after 10 nM, in 2.5 min toxin-free solution", "value": "fully reversed"},
      {"measurement": "Kd", "setting": "mKv1.1", "value": "30 to 40", "unit": "nM"},
      {"measurement": "selectivity for hKv1.3 over mKv1.1", "setting": "mKv1.1", "value": "≥ 10000", "unit": "fold"},
      {"measurement": "remaining current fraction (RCF) mKv1.1", "setting": "mKv1.1; 1 nM", "value": "0.97±0.02"},
      {"measurement": "time for equilibrium block of mKv1.1 to develop", "setting": "mKv1.1; 10 nM", "value": 6, "unit": "min"},
      {"measurement": "remaining current fraction (RCF) mKv1.1", "setting": "mKv1.1; 10 nM", "value": "0.80±0.02"},
      {"measurement": "inhibition at 0.01 µM", "setting": "mKv1.1; L929, read-out: current inhibition mKv1.1", "value": "20 to 50", "unit": "%"},
      {"measurement": "effect on NaV1.5 current", "setting": "hNaV1.5", "value": "lack of blockade; also recorded: does not modify"}
    ]}
  ]
}
